The source made the active and inactive calls. The rule behind the calls is not given here.
Tested on: RAW264.7
Assay: Inhibition of COX-2 gene expression in LPS-stimulated mouse RAW264.7 cells after 24 hrs by RT-PCR analysis
Type: functional, cell-based

Compound | inhibition
NS(=O)(=O)c1ccc(/C=C/c2cccs2)cc1 | Active

Molecular target: T1, Prostaglandin G/H synthase 2 (Mus musculus, UniProt Q05769)
T1 sequence (Q05769 whole entry): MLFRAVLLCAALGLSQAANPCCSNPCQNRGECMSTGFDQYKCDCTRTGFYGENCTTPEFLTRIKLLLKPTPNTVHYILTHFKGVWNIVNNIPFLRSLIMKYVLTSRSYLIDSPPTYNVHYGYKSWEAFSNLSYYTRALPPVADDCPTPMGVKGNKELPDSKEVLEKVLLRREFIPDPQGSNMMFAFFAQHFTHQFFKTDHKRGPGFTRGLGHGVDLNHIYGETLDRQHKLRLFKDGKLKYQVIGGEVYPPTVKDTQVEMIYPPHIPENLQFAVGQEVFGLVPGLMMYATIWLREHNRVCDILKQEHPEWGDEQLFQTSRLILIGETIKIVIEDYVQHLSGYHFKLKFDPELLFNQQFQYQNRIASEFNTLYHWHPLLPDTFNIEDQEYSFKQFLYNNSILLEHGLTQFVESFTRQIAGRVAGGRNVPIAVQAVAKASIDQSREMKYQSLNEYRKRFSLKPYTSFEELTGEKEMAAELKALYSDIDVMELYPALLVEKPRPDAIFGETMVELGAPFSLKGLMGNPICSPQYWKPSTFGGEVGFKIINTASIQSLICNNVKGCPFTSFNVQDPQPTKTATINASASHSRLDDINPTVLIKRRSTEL
Assay: Inhibition of COX-2 mediated PGE2 production in LPS-induced mouse RAW264.7 cells
Type: cell-based

Compound | IC50
NS(=O)(=O)c1ccc(/C=C/c2ccco2)cc1 | 18300 nM
CS(=O)(=O)c1ccc(/C=C/c2ccsc2)cc1 | 520 nM
CS(=O)(=O)c1ccc(/C=C/c2cccs2)cc1 | 380 nM

More lines, now with the values ahead:

IC50 | Compound
> 50000 nM | CS(=O)(=O)c1ccc(/C=C/c2ccoc2)cc1
440 nM | NS(=O)(=O)c1ccc(/C=C/c2ccsc2)cc1
1180 nM | CS(=O)(=O)c1ccc(/C=C/c2ccco2)cc1
13 nM | NS(=O)(=O)c1ccc(/C=C/c2cccs2)cc1
> 50000 nM | NS(=O)(=O)c1ccc(/C=C/c2ccoc2)cc1

Reference: ChEMBL document CHEMBL1287689, “Sulfonamide derivatives of styrylheterocycles as a potent inhibitor of COX-2-mediated prostaglandin E2 production” (Bioorg Med Chem Lett, 2010)
